test system: HIV-IIIb; experiment: Test A: Antiviral Assays in MT4 Cells; type: cell-based; conditions: Human immunodeficiency virus 1, IIIB, MT4, 120 h, Table I; MT-4 cells infected with HIV-IIIb, 5 days incubation, CellTiter-Glo readout
Protocol: The antiviral properties of a compound disclosed herein may be determined using Test A described below.
Test A: Antiviral Assays in MT4 Cells
For the antiviral assay utilizing MT-4 cells, 0.4 μL of […] test concentration of 3-fold serially diluted compound in DMSO was added to 40 μL of cell growth medium (RPMI 1640, 10% FBS, 1% penicillin/Streptomycin, 1% L-Glutamine, 1% HEPES) in each well of 384-well assay plates (10 concentrations) in quadruplicate.
1 mL aliquots of 2×10e6 MT-4 cells are pre-infected for 1 and 3 hrs respectively, @ 37° C. with 25 μL (MT4) or of either cell growth medium (mock-infected) or a fresh 1:250 dilution of an HIV-IIIb concentrated ABI stock (0.004 m.o.i. for MT4 cells). Infected and uninfected cells are diluted in cell growth medium and 35 μL of 2000 (for MT4) cells is added to each well of the assay plates.
Assay plates were then incubated in a 37° C. incubator. After 5 days of incubation, 25 μl of 2× concentrated CellTiter-Glo™ Reagent (catalog # G7573, Promega Biosciences, Inc., Madison, Wis.) was added to each well of the assay plate. Cell lysis was carried out by incubating at room temperature for 2-3 min and then chemiluminescence was read using the Envision reader (PerkinElmer).

Compound | EC50 [nM]
Cc1cc2ccc(C#CC(C)(O)c3ccccc3)cc2c(-c2ccc(Cl)cc2)c1[C@H](OC(C)(C)C)C(=O)O (stereo in doubt) [Example 14, (S)-2-tert-butoxy-2-(1-(4-chlorophenyl)-7-((R)-3-hydroxy-3-phenylbut-1-ynyl)-3-methylnaphthalen-2-yl)acetic acid] | 56
Cc1cc2ccc(C#CC(C)(O)c3ccc(F)cc3)cc2c(-c2ccc(Cl)cc2)c1[C@H](OC(C)(C)C)C(=O)O (stereo partly drawn) [Example 8, (2S)-2-tert-butoxy-2-(1-(4-chlorophenyl)-7-(3-(4-fluorophenyl)-3-hydroxybut-1-ynyl)-3-methylnaphthalen-2-yl)acetic acid] | 120
Cc1cc2ccc(C#CC(O)(c3ccccc3)C(F)(F)F)cc2c(-c2ccc(Cl)cc2)c1[C@H](OC(C)(C)C)C(=O)O (stereo partly drawn) [Example 9, (2S)-2-tert-butoxy-2-(1-(4-chlorophenyl)-3-methyl-7-(4,4,4-trifluoro-3-hydroxy-3-phenylbut-1-ynyl)naphthalen-2-yl)acetic acid] | 186
Cc1cc2ccc(C#CC(C)(O)c3ccccn3)cc2c(-c2ccc(Cl)cc2)c1[C@H](OC(C)(C)C)C(=O)O (stereo partly drawn) [Example 10, (2S)-2-tert-Butoxy-2-(1-(4-chlorophenyl)-7-(3-hydroxy-3-(pyridin-2-yl)but-1-ynyl)-3-methylnaphthalen-2-yl)acetic acid] | 62
Cc1cc2ccc(C#CC(C)(O)c3cccnc3)cc2c(-c2ccc(Cl)cc2)c1[C@H](OC(C)(C)C)C(=O)O (stereo partly drawn) [Example 11, (2S)-2-tert-Butoxy-2-(1-(4-chlorophenyl)-7-(3-hydroxy-3-(pyridin-3-yl)but-1-ynyl)-3-methylnaphthalen-2-yl)acetic acid] | 24

same assay, conditions: Human immunodeficiency virus 1, IIIB, MT4, 120 h, Table II; MT-4 cells infected with HIV-IIIb, 5 days incubation, CellTiter-Glo readout

Compound | EC50 [nM]
COc1ncc(-c2ccc3c(-c4ccc5c6c(ccnc46)CCO5)c([C@H](OC(C)(C)C)C(=O)O)c(C)cc3c2)cn1 (atropisomer, axis not shown) [Example 60] | 12.2
Cc1cc2cc(-c3cncnc3C(C)C)ccc2c(-c2ccc3c4c(ccnc24)CCO3)c1[C@H](OC(C)(C)C)C(=O)O (atropisomer, axis not shown) [Example 62] | 41.1
Cc1ccc2c(-c3ccc4c5c(ccnc35)CCO4)c([C@@H](OC(C)(C)CF)C(=O)O)c(C)cc2c1 (atropisomer, axis not shown) [Example 63] | 1680
Cc1ccc2c(-c3ccc4c5c(ccnc35)CCO4)c([C@H](OC(C)(C)CF)C(=O)O)c(C)cc2c1 (atropisomer, axis not shown) [Example 64] | 8.72
Cc1cc2cc(-c3cncnc3)ccc2c(-c2ccc3c4c(ccnc24)CCO3)c1[C@H](OC(C)(C)C)C(=O)O (atropisomer, axis not shown) [Example 66] | 9.88
Cc1cc2c3c(ccc2c(-c2ccc4c5c(ccnc25)CCO4)c1[C@H](OC(C)(C)C)C(=O)O)COC3 (atropisomer, axis not shown) [Example 67] | 52.3
Cc1cc2c(C(F)F)c(C)ccc2c(-c2ccc3c4c(ccnc24)CCO3)c1[C@H](OC(C)(C)C)C(=O)O (atropisomer, axis not shown) [Example 70] | 11.6
Cc1cc2c(C)c(-c3cnc(N4CCN(C)CC4)nc3)ccc2c(-c2ccc3c4c(ccnc24)CCO3)c1[C@H](OC(C)(C)C)C(=O)O (atropisomer, axis not shown) [Example 71] | 4.23
COc1c(C)c([C@H](OC(C)(C)C)C(=O)O)c(-c2ccc3c4c(ccnc24)CCO3)c2ccccc12 (atropisomer, axis not shown) [Example 82] | 43.2
Cc1c([C@H](OC(C)(C)C)C(=O)O)c(-c2ccc3c4c(ccnc24)CCO3)c2ccccc2c1O (atropisomer, axis not shown) [Example 83] | 14.9
CC(=O)Nc1c(C)c([C@H](OC(C)(C)C)C(=O)O)c(-c2ccc3c4c(ccnc24)CCO3)c2ccccc12 (atropisomer, axis not shown) [Example 89] | 218
CC(C)(C)O[C@H](C(=O)O)c1c(-c2ccc3c4c(ccnc24)CCO3)c2ccccc2c2[nH]ncc12 (atropisomer, axis not shown) [Example 90] | 366
Cc1cc2c(N)cccc2c(-c2ccc3c4c(ccnc24)CCO3)c1[C@H](OC(C)(C)C)C(=O)O (atropisomer, axis not shown) [Example 91] | 11.7
Cc1c([C@H](OC(C)(C)C)C(=O)O)c(-c2ccc3c4c(ccnc24)CCO3)c2ccccc2c1N (atropisomer, axis not shown) [Example 93] | 7.92
Cc1cc2ccccc2c(-c2ccc3c4c(ccnc24)CCO3)c1[C@H](OC(C)(C)CCCCS(N)(=O)=O)C(=O)O (atropisomer, axis not shown) [Example 95] | 386
Cc1cc2ccccc2c(-c2ccc3c4c(ccnc24)CCO3)c1[C@@H](OC(C)(C)CCl)C(=O)O (atropisomer, axis not shown) [Example 98] | 19400
Cc1cc2ccccc2c(-c2ccc3c4c(ccnc24)CCO3)c1[C@H](OC(C)(C)CCl)C(=O)O (atropisomer, axis not shown) [Example 99] | 40.5
Cc1cc2ccccc2c(-c2ccc3c4c(ccnc24)CCO3)c1[C@@H](OC(C)(C)CF)C(=O)O (atropisomer, axis not shown) [Example 101] | 4740
Cc1cc2ccccc2c(-c2ccc3c4c(ccnc24)CCO3)c1[C@H](OC(C)(C)CF)C(=O)O (atropisomer, axis not shown) [Example 102] | 18
Cc1cc2ccccc2c(-c2ccc3c4c(ccnc24)CCO3)c1[C@@H](OC(C)(CF)CF)C(=O)O (atropisomer, axis not shown) [Example 104] | 2950
Cc1cc2ccccc2c(-c2ccc3c4c(ccnc24)CCO3)c1[C@H](OC(C)(CF)CF)C(=O)O (atropisomer, axis not shown) [Example 105] | 15.4

same assay, conditions: Table II; MT-4 cells infected with HIV-IIIb, 5 days incubation, CellTiter-Glo readout

Compound | EC50 [nM]
Cc1cc2cc(-c3c(C)ncnc3C)ccc2c(-c2ccc3c4c(ccnc24)CCO3)c1[C@H](OC(C)(C)C)C(=O)O (atropisomer, axis not shown) [Example 58] | 7760
Cc1cc2cc(-c3c(C)ncnc3C)ccc2c(-c2ccc3c4c(ccnc24)CCO3)c1[C@H](OC(C)(C)C)C(=O)O (atropisomer, axis not shown) [Example 59] | 471
Cc1cc2cccc(F)c2c(-c2ccc3c4c(ccnc24)CCO3)c1[C@H](OC(C)(C)C)C(=O)O (atropisomer, axis not shown) [Example 68] | 2940
Cc1cc2cccc(F)c2c(-c2ccc3c4c(ccnc24)CCO3)c1[C@H](OC(C)(C)C)C(=O)O (atropisomer, axis not shown) [Example 69] | 11.3
Cc1cc2c(C)c(-c3cnc(N(C)C)nc3)ccc2c(-c2ccc3c4c(ccnc24)CCO3)c1[C@H](OC(C)(C)C)C(=O)O (atropisomer, axis not shown) [Example 72] | 7020
Cc1cc2c(C)c(-c3cnc(N(C)C)nc3)ccc2c(-c2ccc3c4c(ccnc24)CCO3)c1[C@H](OC(C)(C)C)C(=O)O (atropisomer, axis not shown) [Example 73] | 8.95
Cc1cc2c(C)c(-c3cnc(N)nc3)ccc2c(-c2ccc3c4c(ccnc24)CCO3)c1[C@H](OC(C)(C)C)C(=O)O (atropisomer, axis not shown) [Example 75] | 6.95
CC(C)(C)O[C@H](C(=O)O)c1c(-c2ccc3c4c(ccnc24)CCO3)c2ccccc2c2occc12 (atropisomer, axis not shown) [Example 76] | 117
CC(C)(C)O[C@H](C(=O)O)c1c(-c2ccc3c4c(ccnc24)CCO3)c2ccccc2c2occc12 (atropisomer, axis not shown) [Example 77] | 32400
CC(C)(C)O[C@H](C(=O)O)c1c2c(c3ccccc3c1-c1ccc3c4c(ccnc14)CCO3)OCC2 (atropisomer, axis not shown) [Example 78] | 45.8
CC(C)(C)O[C@H](C(=O)O)c1c2c(c3ccccc3c1-c1ccc3c4c(ccnc14)CCO3)OCC2 (atropisomer, axis not shown) [Example 79] | 9910
Cc1cc2c(C)c(-c3cncnc3)ccc2c(-c2ccc3c4c(ccnc24)CCO3)c1[C@H](OC(C)(C)C)C(=O)O (atropisomer, axis not shown) [Example 80] | 21.1
Cc1cc2c(C)c(-c3cncnc3)ccc2c(-c2ccc3c4c(ccnc24)CCO3)c1[C@H](OC(C)(C)C)C(=O)O (atropisomer, axis not shown) [Example 81] | 3370
Cc1c([C@H](OC(C)(C)C)C(=O)O)c(-c2ccc3c4c(ccnc24)CCO3)c2ccccc2c1C(F)F (atropisomer, axis not shown) [Example 86] | 131
Cc1c([C@H](OC(C)(C)C)C(=O)O)c(-c2ccc3c4c(ccnc24)CCO3)c2ccccc2c1C(F)F (atropisomer, axis not shown) [Example 87] | 1310
Cc1cc2ccccc2c(-c2ccc3c4c(ccnc24)CCO3)c1[C@H](OC(C)(C)CCF)C(=O)O (atropisomer, axis not shown) [Example 96] | 6420
Cc1cc2ccccc2c(-c2ccc3c4c(ccnc24)CCO3)c1[C@H](OC(C)(C)CCF)C(=O)O (atropisomer, axis not shown) [Example 97] | 43

Source: patent publication US9284323B2, “Naphthalene acetic acid derivatives against HIV infection” (Gilead Sciences, Inc., priority 2012, dated 2016)
